Measurements as given in the supplement of paper PMC10307832.

How the values were obtained:
Experiment in all cases: relative viability (nuclei count vs DMSO), 5 days (fraction); higher = more cells survive
NCI-H2023 = test system: NCI-H2023
Summary of the method: (§1)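 Dosing by pin tool came one day after lung cancer cell lines were seeded in 1536-well plates, using either one drug or a fixed anchor-drug dose plus five library-drug doses (not always all listed) in √10 steps. After 5 days, nuclei were counted on 4× images. Relative viability is treated-well nuclei count divided by vehicle-well nuclei count, and values are medians of duplicate plates.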

NCI-H2126 = test system: NCI-H2126
Summary of the method: as §1

NCI-H322M = test system: NCI-H322M
Summary of the method: as §1

EPLC-272H = test system: EPLC-272H
Summary of the method: as §1

HCC-15 = test system: HCC-15
Summary of the method: as §1

NCI-H522 = test system: NCI-H522
Summary of the method: as §1

HOP-62 = test system: HOP-62
Summary of the method: as §1

COR-L 105 = test system: COR-L 105
Summary of the method: as §1

EMC-BAC-2 = test system: EMC-BAC-2
Summary of the method: as §1

NCI-H1993 = test system: NCI-H1993
Summary of the method: as §1

ChaGo-K-1 = test system: ChaGo-K-1
Summary of the method: as §1

UMC-11 = test system: UMC-11
Summary of the method: as §1

NCI-H3122 = test system: NCI-H3122
Summary of the method: as §1

NCI-H2085 = test system: NCI-H2085
Summary of the method: as §1

LXF-289 = test system: LXF-289
Summary of the method: as §1

CAL-12T = test system: CAL-12T
Summary of the method: as §1

NCI-H358 = test system: NCI-H358
Summary of the method: as §1

NCI-H441 = test system: NCI-H441
Summary of the method: as §1

NCI-H1915 = test system: NCI-H1915
Summary of the method: as §1

NCI-H1755 = test system: NCI-H1755
Summary of the method: as §1

ABC-1 = test system: ABC-1
Summary of the method: as §1

NCI-H1975 = test system: NCI-H1975
Summary of the method: as §1

NCI-H1666 = test system: NCI-H1666
Summary of the method: as §1

SMILES: C[C@@H]1CN(CC(=O)Nc2ccc3c(c2)Cc2cccc(-c4cc(=O)cc(N5CCOCC5)o4)c2S3)C[C@H](C)O1 + CCNC(=O)c1noc(-c2cc(C(C)C)c(O)cc2O)c1-c1ccc(CN2CCOCC2)cc1 [Luminespib] (partner 0.01 µM)
- relative viability (NCI-H2023; first compound 0.04 µM): 0.691
- relative viability (NCI-H2023; first compound 0.1265 µM): 0.75
- relative viability (NCI-H2023; first compound 0.4 µM): 0.543
- relative viability (NCI-H2023; first compound 4 µM): 0.37
- relative viability (NCI-H2126; first compound 0.04 µM): 1.04
- relative viability (NCI-H2126; first compound 0.1265 µM): 0.881
- relative viability (NCI-H2126; first compound 0.4 µM): 0.863
- relative viability (NCI-H2126; first compound 4 µM): 0.744
- relative viability (NCI-H322M; first compound 0.04 µM): 0.767
- relative viability (NCI-H322M; first compound 0.1265 µM): 0.765
- relative viability (NCI-H322M; first compound 0.4 µM): 0.839
- relative viability (NCI-H322M; first compound 4 µM): 0.841
- relative viability (EPLC-272H; first compound 0.04 µM): 0.519
- relative viability (EPLC-272H; first compound 0.1265 µM): 0.381
- relative viability (EPLC-272H; first compound 0.4 µM): 0.26
- relative viability (EPLC-272H; first compound 4 µM): 0.254
- relative viability (HCC-15; first compound 0.04 µM): 0.358
- relative viability (HCC-15; first compound 0.1265 µM): 0.282
- relative viability (HCC-15; first compound 0.4 µM): 0.284
- relative viability (HCC-15; first compound 4 µM): 0.27
- relative viability (NCI-H522; first compound 0.1265 µM): 1.17
- relative viability (NCI-H522; first compound 0.4 µM): 1.06
- relative viability (NCI-H522; first compound 4 µM): 0.896
- relative viability (HOP-62; first compound 0.04 µM): 0.917
- relative viability (HOP-62; first compound 0.1265 µM): 0.898
- relative viability (HOP-62; first compound 0.4 µM): 0.92
- relative viability (HOP-62; first compound 4 µM): 0.907
- relative viability (COR-L 105; first compound 0.04 µM): 0.882
- relative viability (COR-L 105; first compound 0.1265 µM): 0.719
- relative viability (COR-L 105; first compound 0.4 µM): 0.887
- relative viability (COR-L 105; first compound 4 µM): 0.783
- relative viability (EMC-BAC-2; first compound 0.04 µM): 1.28
- relative viability (EMC-BAC-2; first compound 0.1265 µM): 1.17
- relative viability (EMC-BAC-2; first compound 0.4 µM): 1.08
- relative viability (EMC-BAC-2; first compound 4 µM): 1.19
- relative viability (NCI-H1993; first compound 0.04 µM): 0.872
- relative viability (NCI-H1993; first compound 0.1265 µM): 0.913
- relative viability (NCI-H1993; first compound 0.4 µM): 0.621
- relative viability (NCI-H1993; first compound 4 µM): 0.762
- relative viability (ChaGo-K-1; first compound 0.04 µM): 0.598
- relative viability (ChaGo-K-1; first compound 0.1265 µM): 0.596
- relative viability (ChaGo-K-1; first compound 0.4 µM): 0.512
- relative viability (ChaGo-K-1; first compound 4 µM): 0.394
- relative viability (UMC-11; first compound 0.04 µM): 1.1
- relative viability (UMC-11; first compound 0.1265 µM): 0.903
- relative viability (UMC-11; first compound 0.4 µM): 1.03
- relative viability (UMC-11; first compound 4 µM): 0.675
- relative viability (NCI-H3122; first compound 0.04 µM): 0.0752
- relative viability (NCI-H3122; first compound 0.1265 µM): 0.102
- relative viability (NCI-H3122; first compound 0.4 µM): 0.0706
- relative viability (NCI-H3122; first compound 4 µM): 0.0744
- relative viability (NCI-H2085; first compound 0.04 µM): 0.477
- relative viability (NCI-H2085; first compound 0.1265 µM): 0.509
- relative viability (NCI-H2085; first compound 0.4 µM): 0.404
- relative viability (NCI-H2085; first compound 4 µM): 0.397
- relative viability (LXF-289; first compound 0.04 µM): 0.657
- relative viability (LXF-289; first compound 0.1265 µM): 0.645
- relative viability (LXF-289; first compound 0.4 µM): 0.714
- relative viability (LXF-289; first compound 4 µM): 0.73
- relative viability (CAL-12T; first compound 0.04 µM): 0.302
- relative viability (CAL-12T; first compound 0.1265 µM): 0.408
- relative viability (CAL-12T; first compound 0.4 µM): 0.613
- relative viability (CAL-12T; first compound 4 µM): 0.168
- relative viability (NCI-H358; first compound 0.04 µM): 0.429
- relative viability (NCI-H358; first compound 0.1265 µM): 0.308
- relative viability (NCI-H358; first compound 0.4 µM): 0.399
- relative viability (NCI-H358; first compound 4 µM): 0.233
- relative viability (NCI-H441; first compound 0.04 µM): 0.305
- relative viability (NCI-H441; first compound 0.1265 µM): 0.354
- relative viability (NCI-H441; first compound 0.4 µM): 0.274
- relative viability (NCI-H441; first compound 4 µM): 0.309
- relative viability (NCI-H1915; first compound 0.04 µM): 0.761
- relative viability (NCI-H1915; first compound 0.1265 µM): 0.686
- relative viability (NCI-H1915; first compound 0.4 µM): 0.756
- relative viability (NCI-H1915; first compound 4 µM): 0.68
- relative viability (NCI-H1755; first compound 0.04 µM): 0.398
- relative viability (NCI-H1755; first compound 0.1265 µM): 0.361
- relative viability (NCI-H1755; first compound 0.4 µM): 0.45
- relative viability (NCI-H1755; first compound 4 µM): 0.258
- relative viability (ABC-1; first compound 0.1265 µM): 0.64
- relative viability (ABC-1; first compound 0.4 µM): 0.633
- relative viability (ABC-1; first compound 4 µM): 0.521
- relative viability (NCI-H1975; first compound 0.04 µM): 0.289
- relative viability (NCI-H1975; first compound 0.1265 µM): 0.199
- relative viability (NCI-H1975; first compound 0.4 µM): 0.26
- relative viability (NCI-H1975; first compound 4 µM): 0.158
- relative viability (NCI-H1666; first compound 0.04 µM): 1
- relative viability (NCI-H1666; first compound 0.1265 µM): 1.09
- relative viability (NCI-H1666; first compound 0.4 µM): 1.12
- relative viability (NCI-H1666; first compound 4 µM): 0.905

SMILES: CC(C)Oc1cc(Nc2nc(N[C@@H](C)c3ccc(F)cn3)ncc2Cl)n[nH]1 [AZ23] + CCNC(=O)c1noc(-c2cc(C(C)C)c(O)cc2O)c1-c1ccc(CN2CCOCC2)cc1 [Luminespib] (partner 0.01 µM)
- relative viability (NCI-H2023; first compound 0.03162 µM): 0.829
- relative viability (NCI-H2023; first compound 0.3162 µM): 0.674
- relative viability (NCI-H2126; first compound 0.01 µM): 0.954
- relative viability (NCI-H2126; first compound 0.03162 µM): 1
- relative viability (NCI-H2126; first compound 0.3162 µM): 0.875
- relative viability (NCI-H322M; first compound 0.03162 µM): 0.879
- relative viability (NCI-H322M; first compound 0.3162 µM): 1.08
- relative viability (EPLC-272H; first compound 0.01 µM): 0.15
- relative viability (EPLC-272H; first compound 0.03162 µM): 0.203
- relative viability (EPLC-272H; first compound 0.3162 µM): 0.551
- relative viability (HCC-15; first compound 0.01 µM): 0.435
- relative viability (HCC-15; first compound 0.03162 µM): 0.243
- relative viability (HCC-15; first compound 0.3162 µM): 0.338
- relative viability (NCI-H522; first compound 0.01 µM): 1.06
- relative viability (NCI-H522; first compound 0.03162 µM): 1.08
- relative viability (NCI-H522; first compound 0.3162 µM): 1.15
- relative viability (HOP-62; first compound 0.01 µM): 0.841
- relative viability (HOP-62; first compound 0.03162 µM): 0.981
- relative viability (HOP-62; first compound 0.3162 µM): 1.01
- relative viability (COR-L 105; first compound 0.01 µM): 0.83
- relative viability (COR-L 105; first compound 0.03162 µM): 0.872
- relative viability (COR-L 105; first compound 0.3162 µM): 0.731
- relative viability (EMC-BAC-2; first compound 0.01 µM): 1.11
- relative viability (EMC-BAC-2; first compound 0.03162 µM): 1.3
- relative viability (EMC-BAC-2; first compound 0.3162 µM): 1.23
- relative viability (NCI-H1993; first compound 0.01 µM): 0.785
- relative viability (NCI-H1993; first compound 0.03162 µM): 0.881
- relative viability (NCI-H1993; first compound 0.3162 µM): 0.854
- relative viability (ChaGo-K-1; first compound 0.01 µM): 0.637
- relative viability (ChaGo-K-1; first compound 0.03162 µM): 0.687
- relative viability (ChaGo-K-1; first compound 0.3162 µM): 0.7
- relative viability (UMC-11; first compound 0.01 µM): 1.15
- relative viability (UMC-11; first compound 0.03162 µM): 1.05
- relative viability (UMC-11; first compound 0.3162 µM): 0.988
- relative viability (NCI-H3122; first compound 0.01 µM): 0.111
- relative viability (NCI-H3122; first compound 0.03162 µM): 0.0892
- relative viability (NCI-H3122; first compound 0.3162 µM): 0.0986
- relative viability (NCI-H2085; first compound 0.01 µM): 0.321
- relative viability (NCI-H2085; first compound 0.03162 µM): 0.422
- relative viability (NCI-H2085; first compound 0.3162 µM): 0.463
- relative viability (LXF-289; first compound 0.01 µM): 0.884
- relative viability (LXF-289; first compound 0.03162 µM): 0.745
- relative viability (LXF-289; first compound 0.3162 µM): 0.598
- relative viability (CAL-12T; first compound 0.03162 µM): 0.364
- relative viability (CAL-12T; first compound 0.3162 µM): 0.568
- relative viability (NCI-H358; first compound 0.01 µM): 0.416
- relative viability (NCI-H358; first compound 0.03162 µM): 0.395
- relative viability (NCI-H358; first compound 0.3162 µM): 0.349
- relative viability (NCI-H441; first compound 0.01 µM): 0.28
- relative viability (NCI-H441; first compound 0.03162 µM): 0.344
- relative viability (NCI-H441; first compound 0.3162 µM): 0.376
- relative viability (NCI-H1915; first compound 0.01 µM): 1.17
- relative viability (NCI-H1915; first compound 0.03162 µM): 0.866
- relative viability (NCI-H1915; first compound 0.3162 µM): 0.805
- relative viability (NCI-H1755; first compound 0.01 µM): 0.293
- relative viability (NCI-H1755; first compound 0.03162 µM): 0.605
- relative viability (NCI-H1755; first compound 0.3162 µM): 0.634
- relative viability (ABC-1; first compound 0.03162 µM): 0.707
- relative viability (ABC-1; first compound 0.3162 µM): 0.624
- relative viability (NCI-H1975; first compound 0.01 µM): 0.234
- relative viability (NCI-H1975; first compound 0.03162 µM): 0.195
- relative viability (NCI-H1975; first compound 0.3162 µM): 0.223
- relative viability (NCI-H1666; first compound 0.01 µM): 1.05
- relative viability (NCI-H1666; first compound 0.03162 µM): 1.34
- relative viability (NCI-H1666; first compound 0.3162 µM): 0.943
